Test results: patent US8455450B2, “Methods for obtaining a therapeutically effective amount of hematopoietic precursor cells and long term engraftment thereof” (Biokine Therapeutics Ltd., priority 2006, dated 2013)
Bridge positions count the residues as written; N and C are the ends. Square brackets hold non-standard residues; d marks the D form. Peptide text beside a SMILES is read from it. * marks the point of attachment. 2Nal = N[C@@H](Cc1ccc2ccccc2c1)C(=O)O; Benzoyl(4-F) = O=C(c1ccc(F)cc1)*; Cit = NC(=O)NCCC[C@H](N)C(=O)O

Key:
PC3 cells = test: MIP3α secretion by PC3 prostate cells (ELISA); assay type: cell-based
Excerpt: A PC3 prostate cell line that overexpresses high levels of CXCR4 was generated. […] FIG. 1A presents FACS histograms of PC3 cells (left panel) and a single cell clone with stable overexpression of CXCR4, GFP and luc genes (PC3-CXCR4.5, right panel) that were stained for the control (IgG2a-PE, full histograms) and CXCR4 (IgG2a-12G5, empty histograms) antibodies.
In this example, regulation of the chemokine MIP3α (macrophage inflammatory protein 3α) was examined. […] In FIG. 1B, PC3 (left panel) and PC3-CXCR4.5 (right panel) cells were stimulated with the indicated concentrations of CXCL12 for 48 hours and MIP3α secretion was assessed by ELISA. The results represent the average of triplicates±STDEV.
The effects of the CXCR4 antagonist AMD3100 and of 4F-benzoyl-TN14003 (4FB-TN14003), hitherto known as a CXCR4 antagonist, on MIP3α secretion were further tested. […] In FIG. 10, CXCR4 signaling in PC3 (left panel) and PC3-CXCR4.5 (right panel) cells was inhibited with anti-CXCL12 antibodies (αCXCL12) and Pertussis toxin (PTX) treatments alone or in combination with CXCL12, as indicated. Secretion of MIP3α was assessed by ELISA. The results represent the average of triplicates±STDEV.

progenitor cells = test: In vitro production of colonies, colony-forming cell assay without stromal cells; assay type: cell-based; conditions: no stromal cells; 4F-benzoyl-TN14003 10-500 ng/ml, G-CSF 10-500 ng/ml
Procedure: In order to evaluate the number of progenitor cells, a colony-forming cell assay was used. Burst forming units erythrocyte (BFU-E), colony forming units granulocyte-macrophage (CFU-GM), colony forming units megakaryocytes (CFU-M), and colony forming units granulocyte-erythrocyte-monocyte-macrophage (CFU-GEMM) were assayed by plating the cells (10^5/ml) in Iscove's-modified Dulbecco's Medium (IMDM) containing 1% methylcellulose, 15% FBS, 1% bovine serum albumin (BSA), and 4F-benzoyl-TN14003 by itself (10-500 ng/ml) or in combination with G-CSF (in concentrations of 10-500 ng/ml).

[1] = test system: GR-1 positive cells, MNC and progenitors; test: Cell counts in a bone marrow transplantation model; assay type: in vivo, mice; conditions: 900 Rad irradiation, BM transplant 5×10^6/mouse; 5 mg/kg s.c.
Excerpt: Mice received lethal total body irradiations of 900 Rad and were subsequently transplanted with BM cells from donor healthy mice (5×10^6/mouse). […] Flow cytometery was used to assess the number of cells in the blood and bone marrow (BM), and distinguish between the different populations. Cells were gated according to forward scatter and side scatter to exclude dead cells and to determine granulocytes (GR-1 positive cells) and mononuclear cells (MNC).

[2] = test system: hematopoietic progenitor cells (HPCs); test: Mobilization of hematopoietic progenitor cells to the blood, colony-forming cell assay; assay type: in vivo, C57BL/6 mice
Streptococcus A = test: Survival of mice upon bacterial infection in a chemotherapy model; assay type: in vivo; conditions: CPM 250 mg/kg total; Streptococcus A 10^8/mouse s.c. day 0; 4F-benzoyl-TN14003 5 mg/kg s.c., G-CSF 5 μg/mouse
Procedure: Mice received a total dose of 250 mg/kg CPM by two 0.25 ml intra-peritoneal injections scheduled at day −5 (150 mg/kg) and day −2 (100 mg/kg). Mice were subcutaneously treated with 0.2 ml of 4F-benzoyl-TN14003 (5 mg/kg), alone or in combination with G-CSF (5 μg/mouse), at the time points indicated in FIG. 15A. On day 0, Streptococcus A were subcutaneously injected (10^8/mouse) and the mice were then treated as detailed in FIG. 15A.

[3] = test system: granulocytes (GR-1 positive cells); test: Granulocyte (GR-1 positive) counts in blood and bone marrow in a chemotherapy model; assay type: in vivo, mice; conditions: CPM 250 mg/kg total i.p.; 4F-benzoyl-TN14003 5 mg/kg s.c., G-CSF 5 μg/mouse
Procedure: Mice received a total dose of 250 mg/kg cyclophosphamide (CPM) by two 0.25 ml intra-peritoneal injections scheduled at day 0 (150 mg/kg) and day 3 (100 mg/kg). Mice were subcutaneously treated with 0.2 ml of 4F-benzoyl-TN14003 (5 mg/kg) at the indicated time points, as detailed in FIG. 13A. Flow cytometery was used to assess the number of cells in the blood and bone marrow (BM), and distinguish between the different populations. Cells were gated according to forward scatter and side scatter to exclude dead cells and to identify granulocytes (GR-1 positive cells).
Mice received a total dose of 250 mg/kg CPM by two 0.25 ml intra-peritoneal injections scheduled at day 0 (150 mg/kg) and day 3 (100 mg/kg). Mice were subcutaneously treated with 0.2 ml of 4F-benzoyl-TN14003 (5 mg/kg) or G-CSF 5 μg/mouse or the combination of both at the indicated time points as detailed in FIG. 14A. Flow cytometery was used to assess the number of cells in the blood and bone marrow (BM) and distinguish between the different populations. Cells were gated according to forward scatter and side scatter to exclude dead cells and to determine granulocytes (GR-1 positive cells).

white-blood-cells (WBC) = assay type: in vivo
[4] = 5 mg/kg s.c. 4F-benzoyl-TN14003 or AMD3100, 2 h, G-CSF 2.5 μg s.c. twice a day for 4 days, combination 18 h after last G-CSF
[5] = peak at 5 and 10 mg/kg s.c., 2 h
[6] = peak at 10 mg/kg s.c., 2 hours post-injection

How did the MIP3α secretion (PC3 cells) turn out when `N=C(N)NCCC[C@H](NC(=O)[C@@H]1CSSC[C@H](NC(=O)[C@H](Cc2ccc3ccccc3c2)NC(=O)[C@H](CCCNC(=N)N)NC(=O)[C@H](CCCNC(=N)N)NC(=O)c2ccc(F)cc2)C(=O)N[C@@H](Cc2ccc(O)cc2)C(=O)N[C@@H](CCCNC(N)=O)C(=O)N[C@@H](CCCCN)C(=O)N[C@H](CCCCN)C(=O)N2CCC[C@H]2C(=O)N[C@@H](Cc2ccc(O)cc2)C(=O)N[C@@H](CCCNC(=N)N)C(=O)N[C@@H](CCCNC(N)=O)C(=O)N1)C(N)=O` [4F-benzoyl-TN14003, 4F-benzoly-Arg-Arg-Nal-Cys-Tyr-Cit-Lys-DLys-Pro-Tyr-Arg-Cit-Cys-Arg-NH2] ({Benzoyl(4-F)}-RR[2Nal]CY[Cit]K[dK]PYR[Cit]CR-NH2; disulfide 4-13) was run?
Its MIP3α secretion is “induced in both cell lines MIP3α secretion in an agonist manner”.

And the “production of colonies in vitro” value (progenitor cells)?
Its value is “did not stimulate the production of colonies in vitro”.

And the “GR-1 and MNC cell counts in the BM” value [1]?
Its value is “stimulate GR-1 (left panel) and MNC (right panel) production in the BM”.

And the “GR-1 positive cells in the blood” value [1]?
Its value is “mobilize GR-1 positive cells and reduce neutropenia”.

And the “progenitor cell counts (total, CFU-GM, CFU-M, BFU-E, CFU-GEMM) in the BM” value [1]?
Its value is “stimulate production of various progenitors in the BM”.

And the “BFU-E in blood, fold elevation of cell counts from control” value [2, 4]?
The value was 26 fold.

What about the “CFU-GEMM in blood, fold elevation of cell counts from control” value [2, 4] of the same compound?
The value was 44 fold.

What about the “Progenitors in blood, fold elevation of cell counts from control” value [2, 4] of the same compound?
Its value is 7.1 fold.

And the “number of progenitor cells per 1 ml of blood, fold change from control” value ([2]; 5 mg/kg s.c., 30 min)?
The value was 3.2 fold.

What about the “number of progenitor cells per 1 ml of blood, fold change from control” value ([2]; 5 mg/kg s.c., 1 hour) of the same compound?
Its value is 9.5 fold.

And the “BFU-E in blood, fold change from control” value ([2]; 5 mg/kg s.c., 1 h post injection)?
Its value is “more than 200 fold”.

What about the “number of progenitor cells per 1 ml of blood, fold change from control” value ([2]; 5 mg/kg s.c., 2 hours) of the same compound?
Its value is 13.6 fold.

And the “CFU-M in blood, fold change” value ([2]; 5 mg/kg s.c., 4 h)?
The value was 4 fold.

And the “elevation in the number of progenitor cells in blood” value ([2]; 5 mg/kg s.c., 24 hours post-injection)?
The value was “almost disappeared”.

And the “CFU-GM population in blood, fold elevation from control” value ([2]; 5 mg/kg s.c., after 2 h)?
Its value is 12.5 fold.

And the “number of BFU-E in blood, fold elevation from the control level” value ([2]; 5 and 10 mg/kg s.c., 2 h)?
The value was “more than 110 fold”.

And the “number of progenitor cells in 1 ml of blood, fold elevation compared to non-treated mice” value ([2]; 5 or 10 mg/kg s.c., 2 h)?
The value was roughly 10 fold.

And the “number of CFU-GEMM in blood, fold elevation from the control level” value [2, 5]?
The value was 2.5 fold.

What about the “number of CFU-GM in blood, fold elevation from the control level” value [2, 5] of the same compound?
Its value is 11.8 fold.

And the “number of CFU-M in blood, fold elevation from the control level” value [2, 5]?
The value was 10.4 fold.

What about the “survival of mice after Streptococcus A infection” value (Streptococcus A) of the same compound?
The value was “save the mice from death induced by the pathogen”.

What about the “GR-1 positive cells in the blood (flow cytometry)” value [3] of the same compound?
The value was “mobilize GR-1 positive cells to the blood and reduce neutropenia”.

And the “relative numbers (ratio) of GR-1 positive cells in the blood and BM” value [3]?
The value was “release cells from the inhibitory effect of the BM stroma”.

What about the “MNCs in the blood, full return to the baseline level” value (white-blood-cells (WBC); 5 mg/kg s.c.) of the same compound?
Its value is 4 h.

And the “activated macrophages in the blood, return to the baseline level” value (white-blood-cells (WBC); 5 mg/kg s.c.)?
Its value is 24 h.

And the “activated macrophages in the blood, time of peak” value (white-blood-cells (WBC); 5 mg/kg s.c.)?
The value was 1 h.

What about the “neutrophils in the blood, decrease to the baseline level” value (white-blood-cells (WBC); 5 mg/kg s.c.) of the same compound?
The value was 24 h.

What about the “neutrophils in the blood, time of peak” value (white-blood-cells (WBC); 5 mg/kg s.c.) of the same compound?
Its value is 1 to 2 h.

And the “Activated macrophages, fold elevation of cell counts from control” value (white-blood-cells (WBC); [4])?
Its value is 4.2 fold.

What about the “MNC, fold elevation of cell counts from control” value (white-blood-cells (WBC); [4]) of the same compound?
Its value is 2.3 fold.

And the “Neutrophils, fold elevation of cell counts from control” value (white-blood-cells (WBC); [4])?
Its value is 6.1 fold.

What about the “mononuclear cells (MNCs) in the blood, fold elevation from control” value (white-blood-cells (WBC); 5 mg/kg s.c., after 30 minutes) of the same compound?
Its value is 2 fold.

What about the “number of neutrophils in the blood, fold change from control at peak” value (white-blood-cells (WBC); 5 mg/kg s.c., peak after 1 to 2 hours) of the same compound?
The value was greater than 12 fold.

And the “number of WBC in blood, fold elevation compared to control mice (peak of dose response)” value (white-blood-cells (WBC); dose 5 mg/kg s.c., 2 hours post-injection)?
The value was 2.5 fold.

And the “number of white blood cells within the BM” value (white-blood-cells (WBC); intact mice, 5 mg/kg s.c.)?
The value was “no changes were observed”.

And the “MNCs in blood, fold change from control” value (white-blood-cells (WBC); [6])?
Its value is 3.5 fold.

What about the “absolute number of neutrophils in blood, fold change compared to control” value (white-blood-cells (WBC); [6]) of the same compound?
Its value is roughly 8 fold.

What about the “activated macrophages in blood, fold change from control” value (white-blood-cells (WBC); [6]) of the same compound?
The value was 6 fold.

And the “total WBC in blood, full return to the baseline level” value (white-blood-cells (WBC); single dose 5 mg/kg s.c.)?
Its value is 24 h.

What about the “number of total WBC in blood, fold change from control” value (white-blood-cells (WBC); single dose 5 mg/kg s.c., after 30 minutes) of the same compound?
The value was 2 fold.

What about the “mobilization of T cells, B cells and monocytes (FACS)” value (white-blood-cells (WBC); staining CD3, B220, Mac-1) of the same compound?
Its value is “had an effect on the mobilization of T cells, B cells and monocytes”.

What about the “mobilization of NK cells (FACS)” value (white-blood-cells (WBC); staining Nk1.1) of the same compound?
Its value is “had no effect on the mobilization of NK cells”.
